For one experiment, the target named is ABL2 (Homo sapiens, UniProt P42684). Put plainly: Radioisotope filter activity assay, recombinant kinase. The class given is biochemical. On the set-up: purchased Reaction Biology Corporation. The conditions noted are these: 10 point dose response, 10 µM ATP. As to the method: (§1) The effect of SAB298 on a panel of 36 recombinant kinases, was screed with the radioisotope filter binding assay employing 10 concentrations of the compound with 10 µM ATP (Reaction Biology Corporation, Malvern, PA). In addition, we tested the endogenous kinome response to SAB298 (0.05 µM, 0.5 µM and 5 µM) in lysates from two melanoma cell lines (YUSIV and YUSIK) employing the KiNativ® platform (ActivX Biosciences Inc., La Jolla, CA). KiNativ® is a robust, high performance mass spectrometry (LC-MS^2) assay that uses biotinylated probes to measure relevant changes in the affinity to the ATP-binding sites of 205 native kinases as a function of cellular context. We also validated SAB298 effect on the activity of SRC-family kinases by probing for phosphorylated Y416, the marker of activated SFKs, with anti-IEDNEpYTAR antibodies (also known as Y419, #2101, Cell Signaling Technology, Beverly, MA). In some cases the cells were incubated overnight with 20 µM proteasome inhibitor MG-132 (CAS 133407-82-6, Millipore Sigma, Burlington, MA) to rescue degradation.
ABL2, sequence (P42684 whole entry): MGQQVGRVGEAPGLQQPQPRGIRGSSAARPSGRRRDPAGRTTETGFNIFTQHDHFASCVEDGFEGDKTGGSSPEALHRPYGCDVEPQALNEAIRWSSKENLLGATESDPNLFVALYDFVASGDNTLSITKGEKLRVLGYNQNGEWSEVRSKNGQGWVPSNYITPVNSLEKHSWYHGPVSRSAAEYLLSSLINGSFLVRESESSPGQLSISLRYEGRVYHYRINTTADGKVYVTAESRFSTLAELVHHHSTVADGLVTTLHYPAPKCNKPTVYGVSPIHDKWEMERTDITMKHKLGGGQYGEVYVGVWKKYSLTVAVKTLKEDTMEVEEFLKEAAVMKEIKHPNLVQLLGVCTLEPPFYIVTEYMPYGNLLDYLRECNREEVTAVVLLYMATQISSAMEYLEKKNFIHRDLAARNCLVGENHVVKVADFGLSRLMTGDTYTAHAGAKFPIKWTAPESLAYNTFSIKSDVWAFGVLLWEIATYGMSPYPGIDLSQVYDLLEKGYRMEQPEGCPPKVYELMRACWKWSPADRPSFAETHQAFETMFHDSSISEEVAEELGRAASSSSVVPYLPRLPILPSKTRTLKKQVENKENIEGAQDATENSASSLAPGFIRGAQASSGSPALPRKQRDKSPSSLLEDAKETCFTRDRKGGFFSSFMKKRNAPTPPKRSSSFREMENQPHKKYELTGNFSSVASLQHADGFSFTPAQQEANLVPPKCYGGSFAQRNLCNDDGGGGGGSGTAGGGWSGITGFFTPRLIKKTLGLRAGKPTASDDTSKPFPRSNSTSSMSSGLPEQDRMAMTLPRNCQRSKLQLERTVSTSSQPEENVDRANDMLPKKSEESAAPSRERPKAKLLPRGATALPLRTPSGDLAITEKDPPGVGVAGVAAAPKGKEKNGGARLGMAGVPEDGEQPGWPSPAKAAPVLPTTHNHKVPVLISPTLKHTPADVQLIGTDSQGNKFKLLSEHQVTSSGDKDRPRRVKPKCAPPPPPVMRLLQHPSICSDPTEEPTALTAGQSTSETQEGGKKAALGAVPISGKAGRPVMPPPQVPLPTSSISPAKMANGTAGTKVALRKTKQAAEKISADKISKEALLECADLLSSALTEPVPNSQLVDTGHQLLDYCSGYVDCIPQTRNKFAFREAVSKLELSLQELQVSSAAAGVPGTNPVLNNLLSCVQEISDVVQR
(§2) Supplemntary Table 3: Radioisotope filter activity assay Tests for SAB298 target protein
(§3) *These are results from 10 point dose response test employed with 10 µM ATP. […]
(§4) SRC TRCN0000195339 3ʹUTR […]
(§5) YES TRCN0000001611 CDS […]
(§6) FYN TRCN0000003099 CDS […]
(§7) LY N TRCN0000230901 CDS […]

For the next experiment, the target named is LCK (Homo sapiens, UniProt P06239). The experiment is described as above. The class given is biochemical. On the set-up: purchased Reaction Biology Corporation. The following applies: 10 point dose response, 10 µM ATP. The procedure: as §1, §2, §3, §4, §5, §6, §7
LCK, sequence (P06239 whole entry): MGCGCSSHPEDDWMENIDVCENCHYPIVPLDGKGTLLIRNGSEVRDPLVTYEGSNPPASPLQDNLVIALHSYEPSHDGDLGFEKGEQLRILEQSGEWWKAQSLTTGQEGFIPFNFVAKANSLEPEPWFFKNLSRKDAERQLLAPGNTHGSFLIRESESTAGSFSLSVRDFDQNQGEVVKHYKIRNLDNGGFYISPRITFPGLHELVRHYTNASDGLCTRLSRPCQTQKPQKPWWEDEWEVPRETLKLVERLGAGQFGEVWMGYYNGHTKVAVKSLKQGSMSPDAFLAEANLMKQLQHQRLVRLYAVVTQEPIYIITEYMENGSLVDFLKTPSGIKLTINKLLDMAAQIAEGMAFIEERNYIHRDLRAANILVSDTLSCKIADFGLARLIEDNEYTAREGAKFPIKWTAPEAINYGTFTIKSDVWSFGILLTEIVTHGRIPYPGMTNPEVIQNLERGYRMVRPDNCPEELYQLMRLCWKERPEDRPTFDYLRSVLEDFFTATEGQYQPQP
The target in a further experiment is YES1 (Homo sapiens, UniProt P07947). Described as above. In kind it is biochemical. On the set-up: purchased Reaction Biology Corporation. The following applies: 10 point dose response, 10 µM ATP. As to the method: as §1, §2, §3, §4, §5, §6, §7
YES1, sequence (P07947 whole entry): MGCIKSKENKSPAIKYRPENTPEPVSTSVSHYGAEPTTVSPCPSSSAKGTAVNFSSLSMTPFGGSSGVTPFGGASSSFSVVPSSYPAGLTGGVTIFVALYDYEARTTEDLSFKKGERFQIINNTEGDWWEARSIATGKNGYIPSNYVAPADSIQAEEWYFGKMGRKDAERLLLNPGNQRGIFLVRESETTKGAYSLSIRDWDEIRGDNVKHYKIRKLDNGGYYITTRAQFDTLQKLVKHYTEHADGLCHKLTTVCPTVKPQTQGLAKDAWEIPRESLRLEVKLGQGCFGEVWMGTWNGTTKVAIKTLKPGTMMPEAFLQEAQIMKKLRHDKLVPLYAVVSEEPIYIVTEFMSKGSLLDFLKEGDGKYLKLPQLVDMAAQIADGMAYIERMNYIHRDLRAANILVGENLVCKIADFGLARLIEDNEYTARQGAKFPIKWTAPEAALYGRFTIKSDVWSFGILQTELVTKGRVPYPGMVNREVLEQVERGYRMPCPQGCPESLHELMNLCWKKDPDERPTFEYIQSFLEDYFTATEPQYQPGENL
The next experiment deals with LYN (Homo sapiens, UniProt P07948). Described as above. In kind it is biochemical. On the set-up: purchased Reaction Biology Corporation. The following applies: 10 point dose response, 10 µM ATP. The procedure:
as §1, §2, §3, §4, §5, §6, §7

A further experiment deals with SRC (Homo sapiens, UniProt P12931). Described as above. In kind it is biochemical. Also noted: purchased Reaction Biology Corporation. The following applies: 10 point dose response, 10 µM ATP. The procedure:
as §1, §2, §3, §4, §5, §6, §7

In a further experiment the test system is YUTOGS melanoma cells. Put plainly: CellTiter-Glo Luminescent Cell Viability Assay. In kind it is cell-based. The following applies: Homo sapiens, WT/WT, 72 hrs. As to the method: (§8) The melanoma cells were grown in OptiMEM (Invitrogen, Carlsbad, CA) supplemented with 5% fetal calf serum and antibiotics. The normal human melanocytes (NBMEL) were grown in medium supplemented with bFGF, IBMX and dbcAMP [32]. Most of the Yale melanoma cell lines were characterized by next-generation sequencing (Supplementary Table 2).
(§9) Cell proliferation was measured with the CellTiter-Glo® Luminescent Cell Viability Assay (Promega Corporation, Madison, WI). Melanoma cells were seeded in 96-well plates in triplicate or quadruplet wells, with increasing concentrations of kinase inhibitors for 72 hrs. The rate of proliferation was also tested after knockdown of different SRC-family kinases (SFK) with hairpin lentivirus shRNA as indicated. […] The statistical significance of synergism of response to drug combinations was evaluated by following Chou and Talalay algorithm. See also details in Supplementary Material.
For orientation: ATP-based viability assays read luminescence as a measure of living cells.

A further experiment concerns YUROL melanoma cells. The experiment in a line: CellTiter-Glo Luminescent Cell Viability Assay. The class given is cell-based. The following applies: Homo sapiens, WT/WT, 72 hrs. As to the method: as §8, §9
Another experiment has as its system YUHEF melanoma cells. Put plainly: CellTiter-Glo Luminescent Cell Viability Assay. The class given is cell-based. The conditions noted are these: Homo sapiens, WT/WT, 72 hrs. As to the method: as §8, §9
The test system of a further experiment is YULIPPY melanoma cells. Put plainly: CellTiter-Glo Luminescent Cell Viability Assay. In kind it is cell-based. The conditions noted are these: Homo sapiens, BRAF V600E, 72 hrs. As to the method: as §8, §9
In a further experiment the test system is YUMAC melanoma cells. Put plainly: CellTiter-Glo Luminescent Cell Viability Assay. The class given is cell-based. The following applies: Homo sapiens, BRAF V600K, 72 hrs. As to the method:
as §8, §9

The test system of a further experiment is SK-MEL-23 melanoma cells. The experiment in a line: CellTiter-Glo Luminescent Cell Viability Assay. In kind it is cell-based. The following applies: Homo sapiens, SK-MEL-23, WT/WT, 72 hrs. As to the method:
as §8, §9

The next experiment concerns YUGEN8 melanoma cells. Put plainly: CellTiter-Glo Luminescent Cell Viability Assay. The following applies: Homo sapiens, YUGEN8, BRAF V600E, 72 hrs. In kind it is cell-based. As to the method:
as §8, §9

For the next experiment, the system named is phospho-SHP2 Y542. The experiment in a line: Western blot, phospho-SHP2. The class given is cell-based, human. The following applies: melanoma cell lines. As to the method:
(§10) We used standard techniques to identify changes in intracellular signaling in response to various treatments. Briefly, melanoma cells were incubated with test compounds, using DMSO as a control, collected by scraping on ice, and lysed in RIPA buffer supplemented with protease and phosphatase inhibitors (MA #78428, and #78425, respectively, Thermo Fisher Scientific, Waltham, MA). Protein concentrations were measured with the BioRad kit (Bio-Rad Laboratories, Hercules, CA), SDS sample buffer was added, extracts were heated at 95°C, sonicated and centrifuged. Cell extracts (20 µg/lane) were fractionated in 3%–8% or 4–12 % tris-acetate gel (NP0006, NuPAGE Life Technologies). […]
On the technique in general: A western blot detects proteins with antibodies after separation by electrophoresis.

The test system of a further experiment is tyrosinase. Put plainly: Western blot, tyrosinase levels. The following applies: YUSIK, YUKIM and YUPEET; 0.5 µM for 20 hrs. In kind it is cell-based, human. As to the method: as §10
Another experiment relates to pERK T202/Y204. The experiment in a line: Western blot, phospho-MEK and phospho-ERK. In kind it is cell-based, human. The following applies: melanoma cells; 0.5 µM or 1 µM, 2-72 hours. As to the method: We used standard techniques to identify changes in intracellular signaling in response to various treatments. Briefly, melanoma cells were incubated with test compounds, using DMSO as a control, collected by scraping on ice, and lysed in RIPA buffer supplemented with protease and phosphatase inhibitors (MA #78428, and #78425, respectively, Thermo Fisher Scientific, Waltham, MA). Protein concentrations were measured with the BioRad kit (Bio-Rad Laboratories, Hercules, CA), SDS sample buffer was added, extracts were heated at 95°C, sonicated and centrifuged. Cell extracts (20 µg/lane) were fractionated in 3%–8% or 4–12 % tris-acetate gel (NP0006, NuPAGE Life Technologies). We probed with the following primary antibodies: phospho-SRC Tyr416 (CST #2101S), pSRC Tyr527 (#2105), SRC (#2108), pPI3K p85 Y458/p55 Y199 (#4228), LYN (C13F9, #2796), FYN (#4023), phospho-MEK1/2 pSer217/221 (#9121), MEK1/2, phospho-ERK2 pThr202/Tyr204 (#9101), ERK1/2 (#9107), phospho-p38 kinase T180/Y182 (#9216), p38 kinase (#9212), PP2A (#2259), pSHP2 Y542 (#3751), SHP2 (D50F2, #3397), ERBB2 (D8F12 XP(R), #4290), phospho-ERBB2 Y1196 (D66B7 #6942), MYC (D84C12, #5605); GAPDH (14C10, #2118), all from Cell Signaling Technology, Beverly, MA; phospho-PP2A Y307 (AF3989), and MITF (clone D5, #AF5769) from R&D Systems, Inc., Minneapolis, MN; p27KIP1 (#10241) and YES (#610375) from BD Biosciences, San Jose, CA; Cyclin D1 (#04-221) and β-actin (mouse mAb A5316) from MilliporeSigma, St. Louis, MO; PI3K Antibody (p85 alpha, NSJ R30480) from Bioreagents, 9921 Carmel Mountain Rd #352, San Diego, CA. All antibodies were used at the concentrations recommended by the manufacturers.

Experimental findings from paper PMC6481345, “A novel anti-melanoma SRC-family kinase inhibitor” (Oncotarget, 2019) are described below.

Broadly, the IC50 is the concentration needed to halve the response being measured.

SRC, sequence (P12931 whole entry): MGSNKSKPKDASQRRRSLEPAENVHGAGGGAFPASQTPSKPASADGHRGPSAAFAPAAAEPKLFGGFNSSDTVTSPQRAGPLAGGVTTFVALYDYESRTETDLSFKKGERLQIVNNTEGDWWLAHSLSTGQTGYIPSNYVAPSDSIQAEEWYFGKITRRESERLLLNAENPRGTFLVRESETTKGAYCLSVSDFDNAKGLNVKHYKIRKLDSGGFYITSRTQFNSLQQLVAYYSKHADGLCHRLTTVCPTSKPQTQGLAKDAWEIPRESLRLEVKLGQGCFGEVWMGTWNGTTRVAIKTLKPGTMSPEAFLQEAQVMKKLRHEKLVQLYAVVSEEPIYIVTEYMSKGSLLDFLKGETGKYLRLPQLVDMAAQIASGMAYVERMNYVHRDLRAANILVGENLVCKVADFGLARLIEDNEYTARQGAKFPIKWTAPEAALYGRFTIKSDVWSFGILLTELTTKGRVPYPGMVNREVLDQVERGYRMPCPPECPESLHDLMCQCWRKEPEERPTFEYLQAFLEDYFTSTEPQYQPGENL
LYN, sequence (P07948 whole entry): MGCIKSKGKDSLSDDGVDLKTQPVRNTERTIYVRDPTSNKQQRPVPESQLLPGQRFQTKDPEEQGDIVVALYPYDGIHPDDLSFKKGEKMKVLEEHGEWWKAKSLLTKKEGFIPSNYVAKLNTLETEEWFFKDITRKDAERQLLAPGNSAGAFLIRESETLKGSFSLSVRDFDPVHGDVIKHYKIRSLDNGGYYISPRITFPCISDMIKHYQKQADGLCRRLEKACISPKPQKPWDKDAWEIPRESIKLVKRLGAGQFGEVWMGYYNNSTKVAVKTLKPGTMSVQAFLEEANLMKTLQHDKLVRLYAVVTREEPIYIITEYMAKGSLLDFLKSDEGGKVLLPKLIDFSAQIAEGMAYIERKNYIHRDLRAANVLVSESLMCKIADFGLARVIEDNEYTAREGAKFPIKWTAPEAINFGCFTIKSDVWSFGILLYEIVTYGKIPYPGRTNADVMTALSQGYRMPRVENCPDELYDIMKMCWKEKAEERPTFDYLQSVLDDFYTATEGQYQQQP

For the compound `Nc1ncnc2c1c(-c1ccc(Oc3ccccc3)cc1)nn2C[C@@H]1SSC[C@@H]1O` [SAB298, (3S, 4S)-3-((4-amino-3-(4-phenoxyphenyl)-1H-pyrazolo[3,4-d]pyrimidin-1-yl)methyl)-1,2-dithiolan-4-ol], the IC50 was found to be 2560 nM on ABL2; 7.8 nM on LCK; 0.7 nM on YES1; 137 nM at LYN; 269 nM at SRC; 347 nM in the experiment on YUTOGS melanoma cells. For the same compound, the IC50 in the experiment with YUROL melanoma cells is 717 nM; with YUHEF melanoma cells, 257 nM; in the experiment on YULIPPY melanoma cells, 111 nM; in the experiment with YUMAC melanoma cells it was 894 nM; in the experiment with SK-MEL-23 melanoma cells, 162 nM; with YUGEN8 melanoma cells it was 115 nM. Besides, the “phospho-SHP2 Y542 level” value in the experiment on phospho-SHP2 Y542 is “inactivated phospho-SHP2 Y542 in YUSIK, YUROB and YUSOC melanoma cell lines, but not in YUGASP”. Also, in the experiment on tyrosinase, the tyrosinase levels result was “suppressed the levels of tyrosinase”. Also, the “phospho-MEK and phospho-ERK (pERK T202/Y204) levels” value in the experiment with pERK T202/Y204 is “increased, rather than decreased”.
